Patent US12310364B2, “Safened compositions comprising pyridine carboxylate herbicides and cloquintocet” (Corteva Agriscience LLC, priority 2018, dated 2025)
Several values for one entry are separate records, joined by “and”; a condition that tells them apart may be missing. Equal values may be shown once.

Legend:
Assay type in all cases: in vivo
[1] = test system: nutsedge (CYPES, Cyperus esculentus); assay: Greenhouse postemergence trial, visual injury on nutsedge
Excerpt: (§1) Greenhouse Trial Methodology—Evaluation of Postemergence Herbicidal Safening in Crops
(§2) Seeds of the desired test plant species were planted in a 90:10% v/v (volume/volume) mixture of PRO-MIX® BX (Premier Tech Horticulture, Quakertown, PA, USA) and PROFILE® GREENS GRADE™ (Profile Products LLC, Buffalo Grove, IL, USA) planting mixture, which typically has a pH of 5.2 to 6.2 and an organic matter content of at least 50 percent, in plastic pots with a surface area of 103.2 square centimeters (cm^2). When required to ensure good germination and healthy plants, a fungicide treatment and/or other chemical or physical treatment was applied. The plants were grown for 7-36 days (d) in a greenhouse with an approximate 14-hour (h) photoperiod which was maintained at about 23° C. during the day and 22° C. during the night. Nutrients and water were added on a regular basis and supplemental lighting was provided with overhead metal halide 1000-Watt lamps as necessary. The plants were employed for testing when they reached the second or third true leaf stage.
(§3) Emulsifiable concentrates of each of each pyridine carboxylate herbicide (Compound A or Compound B) were prepared at 100 grams acid equivalent per liter (g ae/L). An aliquot of each emulsifiable concentrate was placed in a 25 mL glass vial and diluted with an aqueous mixture of 1.25% (v/v) ACTIROB® B esterified rapeseed oil (Bayer Crop Science, Research Triangle Park, NC, USA) or MSO® Concentrate with LECI-TECH® methylated soybean oil (Loveland Products, Loveland, CO, USA) to obtain concentrated stock solutions at the highest application rate for each herbicide, based upon a 12 milliliter (mL) application volume at a rate of 187 liters per hectare (L/ha). The concentrated stock solutions were further diluted with an aqueous mixture of 1.25% v/v ACTIROB® B or MSO® Concentrate with LECI-TECH® to obtain stock solutions at reduced application rates for each herbicide. Spray solutions of the herbicide combinations (Compound A or Compound B plus safener) were prepared by adding weighed amounts or aliquots of the safener to the stock solutions of Compound A or Compound B to form 12-mL spray solutions in two-way combinations.
(§4) The spray solutions were applied to the plant material with an overhead Mandel track sprayer equipped with 8002E nozzles calibrated to deliver 187 L/ha over an application area of 0.503 square meters (m^2) at a spray height of 18 inches (43 centimeters (cm)) above the average plant canopy. Control plants were sprayed in the same manner with the solvent blank. All herbicide (component a) application rates are given as “g ae/ha” and all safener (component b) application rates are given as “g ai/ha.”
(§5) The treated plants and control plants were placed in a greenhouse as described above and watered by sub-irrigation to prevent wash-off of the test compounds. After 20-22 d, the condition of the test plants as compared with that of the control plants was determined visually and scored on a scale of 0 to 100 percent where 0 corresponds to no injury and 100 corresponds to complete kill.

[2] = test system: Matricaria inodora (false chamomile), MATIN; assay: Greenhouse postemergence trial, visual injury on false chamomile
Excerpt: as §1, §2, §3, §4, §5

[3] = test system: Hordeum vulgare (winter barley), HORVW; assay: Greenhouse postemergence safening trial, visual injury on winter barley
Procedure: (§6) Greenhouse Trial Methodology-Evaluation of Postemergence Herbicidal […] in Crops […] When required to ensure good germination and healthy plants, a fungicide treatment and/or other chemical or physical treatment was applied. The plants were grown for 7-36 days (d) in a greenhouse with an approximate 14-hour (h) photoperiod which was maintained at about 23° C. during the day and 22° C. during the night. Nutrients and water were added on a regular basis and supplemental lighting was provided with overhead metal halide 1000-Watt lamps as necessary. The plants were employed for testing when they reached the second or third true leaf stage. Emulsifiable concentrates of each of each pyridine carboxylate herbicide (Compound A or Compound B) were prepared at 100 grams acid equivalent per liter (g ae/L). […] The concentrated stock solutions were further diluted with an aqueous mixture of 1.25% […] or MSO® Concentrate with LECI-TECH® to obtain stock solutions at reduced application rates for each herbicide. Spray solutions of the herbicide combinations (Compound A or Compound B plus safener) were prepared by adding weighed amounts or aliquots of the safener to the stock solutions of Compound A or Compound B to form 12-mL spray solutions in two-way combinations. […] Control plants were sprayed in the same manner with the solvent blank. All herbicide (component a) application rates are given as “g ae/ha” and all safener (component b) application rates are given as “g ai/ha.” The treated plants and control plants were placed in a greenhouse as described above and watered by sub-irrigation to prevent wash-off of the test compounds.

[4] = test system: Anthemis arvensis (field chamomile), ANTAR; assay: Greenhouse postemergence trial, visual injury on field chamomile
Excerpt: as §1, §2, §3, §4, §5

[5] = test system: Canada thistle (CIRAR, Cirsium arvense); assay: Greenhouse postemergence trial, visual injury on Canada thistle; conditions: Table 19
Excerpt: as §1, §2
as §3, with “combinations. […]” for “combinations.”
as §5

[6] = test system: Brassica napus (winter rape), BRSNW; assay: Greenhouse postemergence trial, visual injury on winter rape
Procedure: as §6

[7] = test system: common lambsquarters (CHEAL, Chenopodium album L.); assay: Greenhouse postemergence trial, visual injury on common lambsquarters; conditions: Table 19
Excerpt: as §1, §2
as §3, with “combinations. […]” for “combinations.”
as §5

[8] = test system: rice (ORYSA); assay: Greenhouse postemergence safening trial, visual injury on rice; conditions: Table 19
Excerpt: as §1, §2
as §3, with “combinations. […]” for “combinations.”
as §5

[9] = test system: Triticum aestivum (winter wheat), TRZAW; assay: Greenhouse postemergence safening trial, visual injury on winter wheat
Procedure: as §6

[10] = test system: blackgrass (ALOMY, Alopecurus myosuroides); assay: Greenhouse postemergence trial, visual injury on blackgrass; conditions: Table 19
Excerpt: as §1, §2
as §3, with “combinations. […]” for “combinations.”
as §5

[11] = CQC-mexyl 20 g/ha alone, Table 19
[12] = CQC-mexyl 40 g/ha alone, Table 19
[13] = CQC-mexyl 80 g/ha alone, Table 19
[14] = CQC-mexyl 10 g/ha alone, Table 16
[15] = CQC-mexyl 20 g/ha alone, Table 16
[16] = CQC-mexyl 40 g/ha alone, Table 16
[17] = CQC-mexyl 80 g/ha alone, Table 16
[18] = CQC-mexyl 5 g/ha alone, Table 15
[19] = CQC-mexyl 10 g/ha alone, Table 15
[20] = CQC-mexyl 20 g/ha alone, Table 15
[21] = CQC-mexyl 40 g/ha alone, Table 14
[22] = CQC-mexyl 40 g/ha alone, Table 15
[23] = Compound A 20 g/ha alone, Table 19
[24] = Compound A 40 g/ha alone, Table 16
[25] = Compound A 20 g/ha alone, Table 15
[26] = Compound A 40 g/ha alone, Table 14

Q: With `CCCCCC(C)OC(=O)COc1ccc(Cl)c2cccnc12` (stereo not shown) [CQC-mexyl, cloquintocet-mexyl] as the compound, how does the “% visual injury, Ob” value ([1]; CQC-mexyl 20 g/ha alone, Table 17) read?
A: 0%

Q: What about the “% visual injury, Ob” value [1, 11] of the same compound?
A: 0%

Q: What about the “% visual injury, Ob” value ([1]; CQC-mexyl 40 g/ha alone, Table 17) of the same compound?
A: 0%

Q: And the “% visual injury, Ob” value [1, 12]?
A: 0%

Q: What about the “% visual injury, Ob” value ([1]; CQC-mexyl 80 g/ha alone, Table 17) of the same compound?
A: 0%

Q: What about the “% visual injury, Ob” value [1, 13] of the same compound?
A: 0%

Q: What about the “% visual injury, Ob” value ([1]; CQC-mexyl 120 g/ha alone, Table 17) of the same compound?
A: 0%

Q: And the “% visual injury, Ob” value [2, 14]?
A: 0%

Q: What about the “% visual injury, Ob” value [2, 15] of the same compound?
A: 0%

Q: What about the “% visual injury, Ob” value [2, 16] of the same compound?
A: 0%

Q: And the “% visual injury, Ob” value [2, 17]?
A: 0%

Q: What about the “% visual injury, Ob” value [3, 18] of the same compound?
A: 0%

Q: What about the “% visual injury, Ob” value [3, 19] of the same compound?
A: 0%

Q: And the “% visual injury, Ob” value [3, 14]?
A: 0%

Q: What about the “% visual injury, Ob” value [3, 20] of the same compound?
A: 0%

Q: What about the “% visual injury, Ob” value [3, 15] of the same compound?
A: 0%

Q: What about the “% visual injury Δ” value [3, 21] of the same compound?
A: 0%

Q: What about the “% visual injury, Ob” value [3, 21] of the same compound?
A: 0%

Q: And the “% visual injury, Ob” value [3, 22]?
A: 0%

Q: What about the “% visual injury, Ob” value [3, 16] of the same compound?
A: 0%

Q: And the “% visual injury, Ob” value [3, 17]?
A: 0%

Q: And the “% visual injury Δ” value ([3]; safener alone 40 g/ha)?
A: 0%

Q: What about the “% visual injury, Ob” value ([3]; safener alone 40 g/ha) of the same compound?
A: 0%

Q: What about the “% visual injury, Ob” value [4, 18] of the same compound?
A: 0%

Q: And the “% visual injury, Ob” value [4, 19]?
A: 0%

Q: What about the “% visual injury, Ob” value [4, 20] of the same compound?
A: 0%

Q: And the “% visual injury, Ob” value [4, 22]?
A: 0%

Q: What about the “% visual injury, Ob” value ([5]; CQC-mexyl 20 g/ha alone) of the same compound?
A: 0%

Q: And the “% visual injury, Ob” value ([5]; CQC-mexyl 40 g/ha alone)?
A: 0%

Q: And the “% visual injury, Ob” value ([5]; CQC-mexyl 80 g/ha alone)?
A: 0%

Q: And the “% visual injury, Ob” value [6, 18]?
A: 0%

Q: And the “% visual injury, Ob” value [6, 19]?
A: 0%

Q: And the “% visual injury, Ob” value [6, 20]?
A: 0%

Q: What about the “% visual injury, Ob” value [6, 11] of the same compound?
A: 0%

Q: And the “% visual injury, Ob” value [6, 22]?
A: 0%

Q: What about the “% visual injury, Ob” value [6, 12] of the same compound?
A: 0%

Q: And the “% visual injury, Ob” value [6, 13]?
A: 0%

Q: What about the “% visual injury, Ob” value ([6]; safener alone 5 g/ha) of the same compound?
A: 0%

Q: What about the “% visual injury, Ob” value ([6]; safener alone 10 g/ha) of the same compound?
A: 0%

Q: And the “% visual injury, Ob” value ([6]; safener alone 20 g/ha)?
A: 0%

Q: What about the “% visual injury, Ob” value ([6]; safener alone 40 g/ha) of the same compound?
A: 0%

Q: What about the “% visual injury, Ob” value ([7]; CQC-mexyl 20 g/ha alone) of the same compound?
A: 0%

Q: What about the “% visual injury, Ob” value ([7]; CQC-mexyl 40 g/ha alone) of the same compound?
A: 0%

Q: What about the “% visual injury, Ob” value ([7]; CQC-mexyl 80 g/ha alone) of the same compound?
A: 0%

Q: What about the “% visual injury, Ob” value ([8]; CQC-mexyl 20 g/ha alone) of the same compound?
A: 0%

Q: And the “% visual injury, Ob” value ([8]; CQC-mexyl 40 g/ha alone)?
A: 0%

Q: What about the “% visual injury, Ob” value ([8]; CQC-mexyl 80 g/ha alone) of the same compound?
A: 0%

Q: What about the “% visual injury, Ob” value [9, 18] of the same compound?
A: 0%

Q: And the “% visual injury, Ob” value [9, 19]?
A: 0%

Q: And the “% visual injury, Ob” value [9, 14]?
A: 0%

Q: What about the “% visual injury, Ob” value [9, 20] of the same compound?
A: 0%

Q: And the “% visual injury, Ob” value [9, 15]?
A: 0%

Q: And the “% visual injury, Ob” value [9, 11]?
A: 0%

Q: And the “% visual injury, Ob” value [9, 21]?
A: 0%

Q: And the “% visual injury, Ob” value [9, 22]?
A: 0%

Q: What about the “% visual injury, Ob” value [9, 16] of the same compound?
A: 0%

Q: What about the “% visual injury, Ob” value [9, 12] of the same compound?
A: 0%

Q: And the “% visual injury, Ob” value [9, 17]?
A: 0%

Q: And the “% visual injury, Ob” value [9, 13]?
A: 0%

Q: And the “% visual injury, Ob” value ([9]; safener alone 40 g/ha)?
A: 0%

Q: And the “% visual injury, Ob” value ([10]; CQC-mexyl 20 g/ha alone)?
A: 0%

Q: And the “% visual injury, Ob” value ([10]; CQC-mexyl 40 g/ha alone)?
A: 0%

Q: What about the “% visual injury, Ob” value ([10]; CQC-mexyl 80 g/ha alone) of the same compound?
A: 0%

Q: What does the source list for `N#CCOC(=O)c1nc(-c2ccc3cc[nH]c3c2F)c(F)c(N)c1Cl` [Compound A, cyanomethyl 4-amino-3-chloro-5-fluoro-6-(7-fluoro-1H-indol-6-yl)pyridine-2-carboxylate]?
A: % visual injury, Ob [1, 23]: 30%; % visual injury, Ob ([1]; Compound A 40 g/ha alone, Table 17): 73%; % visual injury, Ob ([1]; Compound A 40 g/ha alone, Table 18): 73%; % visual injury, Ob [2, 24]: 100%; % visual injury, Ob ([2]; herbicide alone 40 g/ha): 100%; % visual injury, Ob [3, 25]: 15%; % visual injury Δ [3, 26]: 0%; % visual injury, Ob [3, 26]: 40%; % visual injury, Ob [3, 24]: 30%; % visual injury, Ob ([3]; herbicide alone 20 g/ha): 15%; % visual injury Δ ([3]; herbicide alone 40 g/ha): 0%; % visual injury, Ob ([3]; herbicide alone 40 g/ha): 40% and 30%; % visual injury, Ob [4, 25]: 95%; % visual injury, Ob ([4]; herbicide alone 20 g/ha): 95%; % visual injury, Ob ([5]; Compound A 20 g/ha alone): 95%; % visual injury, Ob [6, 25]: 70%; % visual injury, Ob [6, 23]: 85%; % visual injury, Ob ([6]; herbicide alone 20 g/ha): 70% and 95%; % visual injury, Ob ([7]; Compound A 20 g/ha alone): 88%; % visual injury, Ob ([8]; Compound A 20 g/ha alone): 10%; % visual injury, Ob [9, 25]: 20%; % visual injury, Ob [9, 23]: 25%; % visual injury, Ob [9, 26]: 35%; % visual injury, Ob [9, 24]: 35%; % visual injury, Ob ([9]; herbicide alone 20 g/ha): 20%; % visual injury Δ ([9]; herbicide alone 40 g/ha): 0%; % visual injury, Ob ([9]; herbicide alone 40 g/ha): 35% and 25%; % visual injury, Ob ([10]; Compound A 20 g/ha alone): 0%
